pIC50: −log10 of the molar value.
Target: T1, h-11βHSD1 (Homo sapiens, UniProt P28845)
T1 construct: made in house; host or cells: yeast
Assay: 11βHSD1 enzyme assay (SPA)
Format: biochemical
Details: extract of yeast transformed with h-11βHSD1; 120 nM 3H-cortisone; 60 min at 30° C.
Description: 11βHSD1 Enzyme Assay Materials ^3H-cortisone and anti-rabbit Ig coated scintillation proximity assay (SPA) beads were purchased from Amersham Pharmacia Biotech, β-NADPH was from Sigma and rabbit anti-cortisol antibodies were from Fitzgerald. […] The test compounds were dissolved in DMSO (10 mM). All dilutions were performed in a buffer containing 50 mM TRIS-HCl (Sigma Chemical Co), 4 mM EDTA (Sigma Chemical Co), 0.1% BSA (Sigma Chemical Co), 0.01% Tween-20 (Sigma Chemical Co) and 0.005% bacitracin (Novo Nordisk A/S), pH=7.4. Optiplate 96 wells plates were supplied by Packard. The amount of ^3H-cortisol bound to the SPA beads was measured on TopCount NXT, Packard. […] The reaction was initiated by mixing the different components and was allowed to proceed under shaking for 60 min at 30° C. The reaction was stopped be the addition of 10 fold excess of a stopping buffer containing 500 μM carbenoxolone and 1 μM cortisone. Data was analysed using GraphPad Prism software.

T1 sequence (P28845 whole entry): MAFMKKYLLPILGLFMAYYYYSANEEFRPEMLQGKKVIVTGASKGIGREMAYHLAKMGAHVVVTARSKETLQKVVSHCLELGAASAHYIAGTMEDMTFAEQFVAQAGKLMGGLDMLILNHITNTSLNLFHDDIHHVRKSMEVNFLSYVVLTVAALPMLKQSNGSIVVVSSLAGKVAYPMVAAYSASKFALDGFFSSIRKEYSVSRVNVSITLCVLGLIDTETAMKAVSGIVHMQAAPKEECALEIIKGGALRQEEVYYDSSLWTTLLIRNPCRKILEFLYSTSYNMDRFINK

Row | pIC50 | SMILES
1 | 5.88 | O=C(O)c1ccc(OCCC2CCN(C(=O)[C@]34C[C@H]5C[C@H](C[C@H](C5)C3)C4)CC2)cc1 [Example 3, 4-{2-[1-(Tricyclo[3.3.1.1.3.7]decanane-1-carbonyl)-piperidin-4-yl]-ethoxy}-benzoic acid]
2 | 6.08 | O=C(N1CCC(COc2ccccn2)CC1)[C@]12C[C@H]3C[C@H](C[C@H](C3)C1)C2 [Example 6]

Reference: patent publication US20100168083A1, “ADAMANTANE DERIVATIVES FOR THE TREATMENT OF THE METABOLIC SYNDROME” (priority 2006, published 2010)
